Literature values, collected in patent publication US20200093949A1, “COMBINED ODOR ABSORPTION AND INSECT REPELLENT COMPOSITIONS, TREATMENTS, AND METHODS OF USE” (priority 2014, published 2020).

Test system: yellow fever mosquito
Conditions: compared with DEET

CCC(C)OC(=O)N1CCCCC1CCO (stereo not shown) [Picaridin, 2-(2-hydroxyethyl)-1-piperidine carboxylic acid 1-methylpropyl ester]
time of protection of guinea pigs from bites, post application: longer times
